Source: patent US20260263651A1, “WOUND DRESSING” (UNIVERSITY OF SUNDERLAND, priority 2023, published 2026)
Entries after “also recorded” stand apart in the source; their conditions may differ.

Key:
Format in all cases: cell-based
Escherichia coli [1] = test: Microbiological evaluation of overnight bacteria suspensions, modified alginate wound dressing with absorbed substrate on agar; details: for Observable colour change: EC overnight culture, 24 h incubation at 37° C.
Procedure: (§1) ACTIVHEAL® simply A (10×20 cm) non-adhesive foam samples were provided by Advanced Medical Solutions Ltd. The wound dressings were cut into ~5-10×5-10 mm squares, using an ethanol washed pair of scissors. A maximum of 0.20 g of the material was added into 10 mL DI water, and the pH was adjusted to ~3 by the addition of 0.1 M aq. HCl solution. The solution was stirred for 10 mins at room temperature, followed by the addition of 0.33 g EDC •HCl (1.7 mmol) and the pH was maintained at ~3 by the addition of 0.1 M aq. HCl solution. The solution was stirred at room temperature for 10 mins followed by the addition of 0.88 g compound 8 which was dissolved in DMSO or DMF. The mixture was stirred at room temperature for 48 h. The wound dressings were filtered and were washed with ethanol. To ensure the full removal of any non-coupled amide (8), the foam samples were resuspended in ethanol, stirred for 10 mins and filtered, and this process was repeated until the amide (8) was not detectable from the filtrate (this could be maintained by TLC or HPLC evaluation). The samples were dried in a vacuum oven for 3-4 h.
(§2) The aqueous solution of 3a or 3b was prepared by the following: the desired amount of the enzymatic substrate (3.0 mg for 300 mg/L, 6.0 mg for 600 mg/L, 9.0 mg for 900 mg/L, 15.0 mg for 1500 mg/L, and 30.0 mg for 3000 mg/L) was weighed out on a 4 decimal place balance within ±0.3 mg error limit into a 10 mL volumetric flask and was adjusted to 10.0 mL with DI water. The solutions were absorbed into the foam samples and dried in a vacuum oven at 40° C. overnight.
(§3) To model fluid exudate from a chronic wound, the wound dressing made according to ‘Modification of ActivHeal® Alginate’, above, was placed into an agar plate and the test pathogen was smeared over the surface of the agar.
(§4) The enzymatic substrates were tested in 4 different concentrations (300, 600, 900 and 3000 mg/L) using DI water as a solvent, and the solutions were absorbed into the wound dressing samples, which were dried overnight under vacuum at 40° C.
(§5) Two Gram negative strains (Escherichia coli—EC and Pseudomonas aeruginosa—PSA) and a Gram positive bacteria (Staphylococcus aureus—SA) were evaluated against the dimethyl (3a) and the diethyl (3b) substituted substrate. The overnight cultures were directly smeared from LB broth onto Columbia blood agar without measuring the OD. The wound dressings with the enzymatic substrate absorbed were placed onto the agar and were incubated overnight (see FIGS. 2-7).

Pseudomonas aeruginosa = test: as above; details: PSA overnight culture, 24 h incubation at 37° C.
Procedure: as §1, §2, §3, §4, §5

Escherichia coli [2] = test: Microbiological evaluation of standardised bacterial suspensions, modified wound dressing with absorbed substrate on agar; set-up: key to Observable colour change: − indicates no colour change; +− indicates relatively discernible blue colour change; + indicates a moderately strong blue colour change; ++ indicates a strong blue colour change
Procedure: as §1, §2
Bacterial strains were routinely cultured from working stocks in Tryptic Soy Broth (TSB) and incubated at 37° C. overnight with shaking at 150 RPM. Overnight cultures were centrifuged at 3000×g for 5 minutes, the supernatant discarded, and the pellet resuspended in 10 mL phosphate buffered saline (PBS). Bacterial inoculums were standardised by optical density at 600 nm on an Amersham Biosciences Ultrospec 10 spectrophotometer (Amersham Biosciences, Amersham, UK) to contain between 1 and 3×10^8 CFU/mL.
However, rapid evaluation of lower bacteria concentrations is essential for the desired clinical application. Three different solutions (300, 600 and 1500 mg/L) were prepared from the substrates 3a and 3b in micro filtered DI water as a solvent. The solutions were absorbed into the wound dressing samples, which were dried overnight under vacuum at 40° C.
Two Gram negative strains (Escherichia coli—EC and Pseudomonas aeruginosa—PSA) and a Gram-positive bacterium (Staphylococcus aureus—SA) were evaluated. The bacteria were incubated overnight, centrifuged at 3000×g for 5 mins, the supernatant was discarded, and the residue pellets were resuspended in 10 mL PBS. The inoculums were standardised by measuring the optical density at 600 nm to assure a 1-3×10^8 CFU/mL. The standardised solutions were further diluted to prepare 1-3×10^6 and 1-3×10^4 CFU/mL suspension. 1×10^6 CFU would be an ideal breakpoint for a positive result, as this concentration coincides well with a level of colonisation that would likely go on to produce an infection.
100 μL bacterial suspensions were smeared over agar plates. Wound dressing samples were added to the top of the agar and were rolled over a few times (to ensure a full coverage and to ease the visibility of the colour change). The plates were incubated at 37° C., and the results were recorded after 24 h, after 48 h, after 72 h. The results are shown in Table 3-5; − indicates no colour change, +− indicates relatively discernible blue colour change, + indicates a moderately strong blue colour change and ++ indicates a strong blue colour change.

[3] = EC 10^4, substrate 300 mg/L, 24 h at 37° C.
[4] = EC 10^4, substrate 300 mg/L, 48 h at 37° C.
[5] = EC 10^4, substrate 300 mg/L, 72 h at 37° C.
[6] = EC 10^4, substrate 900 mg/L, 24 h at 37° C.
[7] = EC 10^4, substrate 900 mg/L, 48 h at 37° C.
[8] = EC 10^4, substrate 900 mg/L, 72 h at 37° C.
[9] = EC 10^4, substrate 1500 mg/L, 24 h at 37° C.
[10] = EC 10^4, substrate 1500 mg/L, 48 h at 37° C.
[11] = EC 10^4, substrate 1500 mg/L, 72 h at 37° C.
[12] = EC 10^6, substrate 300 mg/L, 24 h at 37° C.
[13] = EC 10^6, substrate 300 mg/L, 48 h at 37° C.
[14] = EC 10^6, substrate 300 mg/L, 72 h at 37° C.
[15] = EC 10^6, substrate 900 mg/L, 24 h at 37° C.
[16] = EC 10^6, substrate 900 mg/L, 48 h at 37° C.
[17] = EC 10^6, substrate 900 mg/L, 72 h at 37° C.
[18] = EC 10^6, substrate 1500 mg/L, 24 h at 37° C.
[19] = EC 10^6, substrate 1500 mg/L, 48 h at 37° C.
[20] = EC 10^6, substrate 1500 mg/L, 72 h at 37° C.
[21] = EC 10^8, 10^6 or 10^4 CFU, after 72 h, every tested substrate concentration
[22] = EC 10^8, substrate 300 mg/L, 24 h at 37° C.
[23] = EC 10^8, substrate 300 mg/L, 48 h at 37° C.
[24] = EC 10^8, substrate 300 mg/L, 72 h at 37° C.
[25] = EC 10^8, substrate 900 mg/L, 24 h at 37° C.
[26] = EC 10^8, substrate 900 mg/L, 48 h at 37° C.
[27] = EC 10^8, substrate 900 mg/L, 72 h at 37° C.
[28] = EC 10^8, substrate 1500 mg/L, 24 h at 37° C.
[29] = EC 10^8, substrate 1500 mg/L, 48 h at 37° C.
[30] = EC 10^8, substrate 1500 mg/L, 72 h at 37° C.
[31] = substrate 300 mg/L, hydrochloride

Row | Compound | Observable colour change (Escherichia coli [1]; substrate 600 mg/L) | Observable colour change (Escherichia coli [1]; substrate 900 mg/L) | Observable colour change (Escherichia coli [1]; substrate 3000 mg/L) | Observable colour change (Pseudomonas aeruginosa; substrate 600 mg/L) | Observable colour change (Pseudomonas aeruginosa; substrate 900 mg/L) | Observable colour change (Pseudomonas aeruginosa; substrate 3000 mg/L) | Observable colour change (Escherichia coli [2]; [3]) | Observable colour change (Escherichia coli [2]; [4]) | Observable colour change (Escherichia coli [2]; [5]) | Observable colour change (Escherichia coli [2]; [6]) | Observable colour change (Escherichia coli [2]; [7]) | Observable colour change (Escherichia coli [2]; [8]) | Observable colour change (Escherichia coli [2]; [9]) | Observable colour change (Escherichia coli [2]; [10]) | Observable colour change (Escherichia coli [2]; [11]) | Observable colour change (Escherichia coli [2]; [12]) | Observable colour change (Escherichia coli [2]; [13]) | Observable colour change (Escherichia coli [2]; [14]) | Observable colour change (Escherichia coli [2]; [15]) | Observable colour change (Escherichia coli [2]; [16]) | other results
1 | CC(C)C[C@H](N)C(=O)Nc1ccc(N(C)C)cc1.Cl [3a, (2S)-2-amino-N-[4-(dimethylamino)phenyl]-4-methyl-pentanamide hydrochloride] | Light blue | Blue | Dark blue | Light blue | Blue | Blue | − | − | − | − | − | + | − | +− | + | − | +− | + | − | +− | Observable colour change (Escherichia coli [1]; substrate 300 mg/L): Light blue; Observable colour change (Pseudomonas aeruginosa; substrate 300 mg/L): None; Observable colour change (Escherichia coli [2]; [17]): +; Observable colour change (Escherichia coli [2]; [18]): +−; Observable colour change (Escherichia coli [2]; [19]): +; Observable colour change (Escherichia coli [2]; [20]): ++; colour change (Escherichia coli [2]; [21]): moderate or strong blue colour changes; Observable colour change (Escherichia coli [2]; [22]): +−; Observable colour change (Escherichia coli [2]; [23]): +; Observable colour change (Escherichia coli [2]; [24]): ++; Observable colour change (Escherichia coli [2]; [25]): +−; Observable colour change (Escherichia coli [2]; [26]): +; Observable colour change (Escherichia coli [2]; [27]): ++; Observable colour change (Escherichia coli [2]; [28]): +−; Observable colour change (Escherichia coli [2]; [29]): +; Observable colour change (Escherichia coli [2]; [30]): ++; colour change (Escherichia coli [2]; EC, substrate 900 or 1500 mg/L, printed in the 48 h paragraph): moderate or strong colour change
2 | CCN(CC)c1ccc(NC(=O)[C@@H](N)CC(C)C)cc1.Cl [3b, (2S)-2-amino-N-[4-(diethylamino)phenyl]-4-methyl-pentanamide hydrochloride] | Light blue | Dark blue | Dark blue | Light blue | Blue | Dark blue | − | + | + | − | + | ++ | − | + | ++ | − | + | + | − | + | Observable colour change (Escherichia coli [1]; [31]): blue colour changes; also recorded: Light blue; colour change strength compared with the dimethyl analogue (Escherichia coli [1]; overnight cultures (EC, PSA, SA), overall comparison of Table 2): stronger colour changes than the dimethyl analogue (3a); Observable colour change (Pseudomonas aeruginosa; [31]): blue colour changes; also recorded: Light blue; Observable colour change (Escherichia coli [2]; [17]): ++; Observable colour change (Escherichia coli [2]; [18]): +−; Observable colour change (Escherichia coli [2]; [19]): +; Observable colour change (Escherichia coli [2]; [20]): ++; colour change (Escherichia coli [2]; EC 10^6 CFU and 10^4 CFU, after 48 h incubation): moderate colour change; colour change (Escherichia coli [2]; [21]): moderate or strong blue colour changes; Observable colour change (Escherichia coli [2]; [22]): +−; Observable colour change (Escherichia coli [2]; [23]): +; Observable colour change (Escherichia coli [2]; [24]): +; Observable colour change (Escherichia coli [2]; [25]): +−; Observable colour change (Escherichia coli [2]; [26]): ++; Observable colour change (Escherichia coli [2]; [27]): ++; Observable colour change (Escherichia coli [2]; [28]): +−; Observable colour change (Escherichia coli [2]; [29]): ++; Observable colour change (Escherichia coli [2]; [30]): ++; colour change (Escherichia coli [2]; EC 10^8 CFU, 10^6 CFU, and 104 CFU, substrate 900 mg/L, printed in the 48 h paragraph): strong blue colour changes; colour change (Escherichia coli [2]; EC 10^8 CFU, after 48 h incubation, substrate 900 or 1500 mg/L): strong blue colour changes
